Entries after “also recorded” stand apart in the source; their conditions may differ.
Tests used:
A2780 = experiment: In vitro cell growth inhibition assay (MTT); format: cell-based, human; conditions: A2780 human ovarian cancer cell line, 48 h, MTT; read-out: IC50 A2780
In short: (§1)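 IC50 values come from growth inhibition rates calculated from MTT absorbance at 540 nm. Compound exposure lasted 48 h on cells plated at 5000 per well.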

Hela = experiment: In vitro cell growth inhibition assay (MTT); format: cell-based, human; conditions: Hela human cervical cancer cell line, 48 h, MTT; read-out: IC50 Hela
In short: as §1

MDA-MB-231 = experiment: In vitro cell growth inhibition assay (MTT); format: cell-based, human; conditions: MDA-MB-231 human breast cancer cell line, 48 h, MTT; read-out: IC50 MDA-MB-231
In short: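 5000 cells/well, overnight attachment; compounds 48 h (vehicle 0.2% DMSO); MTT 0.5 mg/mL, 4 h, 37° C; formazan in DMSO; A540. IC50 from growth inhibition rates.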

SKOV3 = experiment: In vitro cell growth inhibition assay (MTT); format: cell-based, human; conditions: SK-OV-3; SKOV-3 human ovarian cancer cell line, 48 h, MTT; read-out: IC50 SKOV3
In short: as §1

KM mice = experiment: Acute toxicity assay; format: in vivo; conditions: for No. of dead mice 5-14 days / No. of dead mice 1 day / No. of dead mice 2 days / No. of dead mice 3 days / No. of dead mice 4 days / Survival (%) on day 14 / Total death: single i.p. injection
Experimental: (§2) KM mice were housed individually in a specific pathogen free facility. Groups of mice (n=10 per group, half male and half female) were injected intraperitoneally once with various dosages of 69 (95, 70, 50, 35, 25 mg/kg), 70 (500, 425, 350, 275, 200 mg/kg), 97 (275, 200, 150, 125 and 100 mg/kg) or vehicle (8.3% cremohorp EL and 8.3% alcohol in PBS) as negative control, respectively. 69, 70 and 97 was dissolved in cremeohore EL and alcohol mixture (1:1, v/v) and further diluted with PBS (1:5, v/v). The death of mice were monitored daily and recorded up to 14 days after injection.

Acute toxicity assay = format: in vivo; conditions: both sexes, mouse, in vivo, ip; KM mice, single intraperitoneal injection, 14 days
Experimental: as §2

[1] = test system: p-histone H3, cyclin B1 and BuBR1 in HeLa cells; experiment: Cell cycle associated proteins assay; format: cell-based, human; conditions: 24 h, western blot and qPCR
Experimental: A. HeLa cells were treated with 69, 70, 97 or DMSO for 24 h. After being harvested, the cells were lysed, and the concentrations of total protein were determined by BCA protein assay kit (Beyotime, China). […] The membrane was blocked with 5% BSA in TBST for 1.5 h, then incubated overnight with specific primary antibodies (Proteintech) at 4° C. After being washed three times by TBST, the membrane was incubated with specific secondary antibodies (Abnova, Taipei, China) at room temperature for 2 h. Finally, chemiluminescent reagents (Millipore) were employed to detect the protein bands.
B. Quantitative PCR assay: HeLa cells were treated with 69, 70 or 97. The expression level of mRNA of target proteins was tested with qPCR kit (Takara).

Hela cells = experiment: Cell cycle analysis; format: cell-based, human; conditions: 24 h
Experimental: 2*10^5 Hela cells per well were seeded into six-well plate and allowed to adhere overnight at 37° C. After treatment with indicated concentrations of 69, 70 and 97, CA-4 as positive control or diluent (0.2% DMSO) as negative control for 24 h, cells were harvested, washed twice with PBS and fixed with 75% ethanol at −20° C. overnight. Then cells were stained with propidium iodide dye (BD Biosciences) for 15 min in dark conditions at room temperature, followed by subjected to flow cytometry (Cytomics FC 500MPL, Beckman Coulter) detection. The results were analyzed by Multicycle AV (for Windows, version 320) software and indicated as mean values from three independent determinations.

[2] = test system: VEGF induced angiogenesis; experiment: Matrigel plug assay; format: in vivo, Balb/C nude mice; conditions: nude mice, s.c. matrigel with 100 ng/mL VEGF-A165, 2 weeks
Experimental: 6 weeks old female Balb/C nude mice were purchased from Shanghai Slac Laboratory Animal Co. Ltd. (Shanghai, China). Matrigel containing 100 ng/mL human recombinant VEGF-A165 (Peprotech, Rocky Hill, N.J.) were mixed with indicated concentrations of 69, 70 and 97, or diluent (0.2% DMSO) as negative control at 4° C. Then, 0.5 mL of the matrigel mixture per mouse was injected subcutaneously into nude mice (n=4) in the dorsal region to generate matrigel plugs. 2 weeks later, the mice were sacrificed and matrigel plugs were recovered. Representative data from three independent experiments were shown.

SMILES: COc1ccc([C@H]2[C@@H](C)C(=O)N2c2cc(OC)c(OC)c(OC)c2)cc1O [Compound 70, (3R,4R)-4-(3-hydroxy-4-methoxyphenyl)-3-methyl-1-(3,4,5-trimethoxyphenyl)azetidin-2-one]
- IC50 (A2780): 35 nM
- IC50 (Hela): 74 nM
- IC50 (MDA-MB-231): 67 nM
- IC50 (SKOV3): 51 nM
- No. of dead mice 5-14 days (KM mice; 200 mg/kg): 0
- No. of dead mice 1 day (KM mice; 200 mg/kg): 0
- No. of dead mice 2 days (KM mice; 200 mg/kg): 0
- No. of dead mice 3 days (KM mice; 200 mg/kg): 0
- No. of dead mice 4 days (KM mice; 200 mg/kg): 0
- Survival (%) on day 14 (KM mice; 200 mg/kg): 100%
- Total death (KM mice; 200 mg/kg): 0
- No. of dead mice 5-14 days (KM mice; 275 mg/kg): 1
- No. of dead mice 1 day (KM mice; 275 mg/kg): 0
- No. of dead mice 2 days (KM mice; 275 mg/kg): 0
- No. of dead mice 3 days (KM mice; 275 mg/kg): 0
- No. of dead mice 4 days (KM mice; 275 mg/kg): 1
- Survival (%) on day 14 (KM mice; 275 mg/kg): 80%
- Total death (KM mice; 275 mg/kg): 2
- No. of dead mice 5-14 days (KM mice; 350 mg/kg): 0
- No. of dead mice 1 day (KM mice; 350 mg/kg): 0
- No. of dead mice 2 days (KM mice; 350 mg/kg): 0
- No. of dead mice 3 days (KM mice; 350 mg/kg): 1
- No. of dead mice 4 days (KM mice; 350 mg/kg): 0
- Survival (%) on day 14 (KM mice; 350 mg/kg): 90%
- Total death (KM mice; 350 mg/kg): 1
- No. of dead mice 5-14 days (KM mice; 425 mg/kg): 0
- No. of dead mice 1 day (KM mice; 425 mg/kg): 0
- No. of dead mice 2 days (KM mice; 425 mg/kg): 0
- No. of dead mice 3 days (KM mice; 425 mg/kg): 3
- No. of dead mice 4 days (KM mice; 425 mg/kg): 0
- Survival (%) on day 14 (KM mice; 425 mg/kg): 70%
- Total death (KM mice; 425 mg/kg): 3
- No. of dead mice 5-14 days (KM mice; 500 mg/kg): 0
- No. of dead mice 1 day (KM mice; 500 mg/kg): 0
- No. of dead mice 2 days (KM mice; 500 mg/kg): 0
- No. of dead mice 3 days (KM mice; 500 mg/kg): 4
- No. of dead mice 4 days (KM mice; 500 mg/kg): 0
- Survival (%) on day 14 (KM mice; 500 mg/kg): 60%
- Total death (KM mice; 500 mg/kg): 4
- LD50 at 14 days (Acute toxicity assay): > 500 mg/kg
- expression of p-histone H3, cyclin B1 and BuBR1 [1]: significantly promote the expression of phosphorylated histone H3, cyclinB1, and mitotic checkpoint protein BuBR1; also recorded: significantly induce the expression of p-histone H3, cyclin B1 and BuBR1
- cell cycle arrest (G2/M, mitotic arrest) (Hela cells): significantly arrest cells in the G2/M phase; also recorded: significantly induce cellular mitotic arrest
- VEGF induced angiogenesis in matrigel plugs [2]: significantly inhibit VEGF-mediated neovascularization; also recorded: suppressed VEGF induced angiogenesis

SMILES: COc1ccc([C@H]2[C@H](C)C(=O)N2c2cc(OC)c(OC)c(OC)c2)cc1O [Compound 97, (3S,4R)-4-(3-hydroxy-4-methoxyphenyl)-3-methyl-1-(3,4,5-trimethoxyphenyl)azetidin-2-one]
- IC50 (A2780): 2 nM
- IC50 (Hela): 1 nM
- IC50 (MDA-MB-231): 3 nM
- IC50 (SKOV3): 3 nM
- No. of dead mice 5-14 days (KM mice; 100 mg/kg): 0
- No. of dead mice 1 day (KM mice; 100 mg/kg): 0
- No. of dead mice 2 days (KM mice; 100 mg/kg): 0
- No. of dead mice 3 days (KM mice; 100 mg/kg): 1
- No. of dead mice 4 days (KM mice; 100 mg/kg): 0
- Survival (%) on day 14 (KM mice; 100 mg/kg): 90%
- Total death (KM mice; 100 mg/kg): 1
- No. of dead mice 5-14 days (KM mice; 125 mg/kg): 0
- No. of dead mice 1 day (KM mice; 125 mg/kg): 0
- No. of dead mice 2 days (KM mice; 125 mg/kg): 2
- No. of dead mice 3 days (KM mice; 125 mg/kg): 1
- No. of dead mice 4 days (KM mice; 125 mg/kg): 0
- Survival (%) on day 14 (KM mice; 125 mg/kg): 70%
- Total death (KM mice; 125 mg/kg): 3
- No. of dead mice 5-14 days (KM mice; 150 mg/kg): 0
- No. of dead mice 1 day (KM mice; 150 mg/kg): 2
- No. of dead mice 2 days (KM mice; 150 mg/kg): 4
- No. of dead mice 3 days (KM mice; 150 mg/kg): 0
- No. of dead mice 4 days (KM mice; 150 mg/kg): 0
- Survival (%) on day 14 (KM mice; 150 mg/kg): 40%
- Total death (KM mice; 150 mg/kg): 6
- No. of dead mice 5-14 days (KM mice; 200 mg/kg): 0
- No. of dead mice 1 day (KM mice; 200 mg/kg): 1
- No. of dead mice 2 days (KM mice; 200 mg/kg): 4
- No. of dead mice 3 days (KM mice; 200 mg/kg): 2
- No. of dead mice 4 days (KM mice; 200 mg/kg): 0
- Survival (%) on day 14 (KM mice; 200 mg/kg): 30%
- Total death (KM mice; 200 mg/kg): 7
- No. of dead mice 5-14 days (KM mice; 275 mg/kg): 0
- No. of dead mice 1 day (KM mice; 275 mg/kg): 2
- No. of dead mice 2 days (KM mice; 275 mg/kg): 4
- No. of dead mice 3 days (KM mice; 275 mg/kg): 2
- No. of dead mice 4 days (KM mice; 275 mg/kg): 1
- Survival (%) on day 14 (KM mice; 275 mg/kg): 10%
- Total death (KM mice; 275 mg/kg): 9
- expression of p-histone H3, cyclin B1 and BuBR1 [1]: significantly promote the expression of phosphorylated histone H3, cyclinB1, and mitotic checkpoint protein BuBR1; also recorded: significantly induce the expression of p-histone H3, cyclin B1 and BuBR1
- cell cycle arrest (G2/M, mitotic arrest) (Hela cells): significantly arrest cells in the G2/M phase; also recorded: significantly induce cellular mitotic arrest
- VEGF induced angiogenesis in matrigel plugs [2]: significantly inhibit VEGF-mediated neovascularization; also recorded: suppressed VEGF induced angiogenesis

SMILES: COc1ccc([C@H]2[C@H](CO)C(=O)N2c2cc(OC)c(OC)c(OC)c2)cc1O [Compound 69, (3R,4R)-4-(3-hydroxy-4-methoxyphenyl)-3-(hydroxymethyl)-1-(3,4,5-trimethoxyphenyl)azetidin-2-one]
- No. of dead mice 5-14 days (KM mice; 25 mg/kg): 0
- No. of dead mice 1 day (KM mice; 25 mg/kg): 0
- No. of dead mice 2 days (KM mice; 25 mg/kg): 0
- No. of dead mice 3 days (KM mice; 25 mg/kg): 0
- No. of dead mice 4 days (KM mice; 25 mg/kg): 0
- Survival (%) on day 14 (KM mice; 25 mg/kg): 100%
- Total death (KM mice; 25 mg/kg): 0
- No. of dead mice 5-14 days (KM mice; 35 mg/kg): 0
- No. of dead mice 1 day (KM mice; 35 mg/kg): 0
- No. of dead mice 2 days (KM mice; 35 mg/kg): 0
- No. of dead mice 3 days (KM mice; 35 mg/kg): 1
- No. of dead mice 4 days (KM mice; 35 mg/kg): 0
- Survival (%) on day 14 (KM mice; 35 mg/kg): 90%
- Total death (KM mice; 35 mg/kg): 1
- No. of dead mice 5-14 days (KM mice; 50 mg/kg): 0
- No. of dead mice 1 day (KM mice; 50 mg/kg): 0
- No. of dead mice 2 days (KM mice; 50 mg/kg): 0
- No. of dead mice 3 days (KM mice; 50 mg/kg): 1
- No. of dead mice 4 days (KM mice; 50 mg/kg): 0
- Survival (%) on day 14 (KM mice; 50 mg/kg): 90%
- Total death (KM mice; 50 mg/kg): 1
- No. of dead mice 5-14 days (KM mice; 70 mg/kg): 1
- No. of dead mice 1 day (KM mice; 70 mg/kg): 0
- No. of dead mice 2 days (KM mice; 70 mg/kg): 0
- No. of dead mice 3 days (KM mice; 70 mg/kg): 4
- No. of dead mice 4 days (KM mice; 70 mg/kg): 2
- Survival (%) on day 14 (KM mice; 70 mg/kg): 30%
- Total death (KM mice; 70 mg/kg): 7
- No. of dead mice 5-14 days (KM mice; 95 mg/kg): 1
- No. of dead mice 1 day (KM mice; 95 mg/kg): 0
- No. of dead mice 2 days (KM mice; 95 mg/kg): 0
- No. of dead mice 3 days (KM mice; 95 mg/kg): 6
- No. of dead mice 4 days (KM mice; 95 mg/kg): 1
- Survival (%) on day 14 (KM mice; 95 mg/kg): 20%
- Total death (KM mice; 95 mg/kg): 8
- LD50 (KM mice; single intraperitoneal injection, 14 days): 61.5 mg/kg
- expression of p-histone H3, cyclin B1 and BuBR1 [1]: significantly promote the expression of phosphorylated histone H3, cyclinB1, and mitotic checkpoint protein BuBR1; also recorded: significantly induce the expression of p-histone H3, cyclin B1 and BuBR1
- cell cycle arrest (G2/M, mitotic arrest) (Hela cells): significantly arrest cells in the G2/M phase; also recorded: significantly induce cellular mitotic arrest
- VEGF induced angiogenesis in matrigel plugs [2]: significantly inhibit VEGF-mediated neovascularization; also recorded: suppressed VEGF induced angiogenesis
